Reference: patent US11885816B2, “Personalized medicine approach for treating cognitive loss” (University of North Texas Health Science Center at Fort …, priority 2013, dated 2024)
Entries after “also recorded” stand apart in the source; their conditions may differ. Read-outs that look alike come from different tables or passages of the source.

Tested on: AD patients
Details: for disease severity (CDR Sum of Boxes [CDRSum]): treated; for change in MMSE scores over the 12 month period of the trial: treatment group
Procedure: In order to determine if the proinflammatory endophenotype predicted treatment response, baseline plasma samples were analyses from a previously conducted trial of the Alzheimer's Disease Cooperative Study (ADCS, Aisen et al 2003, JAMA).
Baseline plasma samples were assayed using enhanced chemiluminescence (ECL) for a range of inflammatory markers. The pro-inflammatory profile was generated using CRP and TNFα. Additional markers can be used to improve the already robust results shown herein. The frequency of the low, middle (referent group) and high ends of the pro-inflammatory profile are presented below.
Blood samples from a previously conducted clinical trial among AD patients was used. This trial was conducted by the Alzheimer's Disease Cooperative Study (ADCS, Aisen et al 2003, JAMA).
Baseline plasma samples were assayed using ECL for a range of inflammatory markers. The pro-inflammatory profile was generated using CRP and TNFα.

COc1ccc2cc([C@H](C)C(=O)O)ccc2c1 [naproxen]
treatment comparison of non-selective with selective NSAIDs (high end of the proinflammatory endophenotype, comparator selective NSAIDs (celecoxib)): superior treatment
disease severity (CDR Sum of Boxes [CDRSum]) (high end of the pro-inflammatory profile, compared to untreated): declined less than those who were untreated
disease severity (CDR Sum of Boxes [CDRSum]) (low end of the pro-inflammatory profile, over 12 months, compared to any other group): progressed in disease severity more rapidly
change in MMSE scores over the 12 month period of the trial (high end of the pro-inflammatory profile (group 3), compared to the low end and the referent group, listed as anti-inflammatory drug): stable over 12 months; also recorded: stable over 12 mo
change in MMSE scores over the 12 month period of the trial (low end of the pro-inflammatory profile (group 1), compared to the referent (middle) group): declined significantly faster
